Drawing on PubChem BioAssay AID1745844 (Carcinogenic Potency Database (CPDB), 2022), this text covers TD50 and carcinogen call for 6 compounds.

As usually defined, the TD50 is the 50% point of the dose-response relation for the toxic effect studied.

The subject of this series is rodent lifetime carcinogenesis bioassay, tumor incidence TD50. The series is described as follows: chronic cancer bioassays in animals – CPDB, compiled studies (AID 1745844).

“And” between values parts separate entries of the source, which are not always exact repeats. Equal values may be shown once. The source made the active and inactive calls. How the calls were made is not given here.

For `Nc1ccccc1N`, the TD50 was 676 mg/kg/day (mouse, strain CD-1 HaM/ICR, females, in feed, site: any site (literature study), lesion: several types, types named in the paper, dosed 77 weeks, study length 90 weeks); 611 mg/kg/day (mouse, strain CD-1 HaM/ICR, females, in feed, site: liver, lesion: hepatoma, dosed 77 weeks, study length 90 weeks); 507 mg/kg/day (mouse, strain CD-1 HaM/ICR, females, in feed, site: liver, lesion: several types, types named in the paper, dosed 77 weeks, study length 90 weeks); 2260 mg/kg/day (inactive) (mouse, strain CD-1 HaM/ICR, females, in feed, site: lung, lesion: several types, types named in the paper, dosed 77 weeks, study length 90 weeks); 1970 mg/kg/day (mouse, strain CD-1 HaM/ICR, males, in feed, site: any site (literature study), lesion: several types, types named in the paper, dosed 77 weeks, study length 86 weeks); 921 mg/kg/day and 1110 mg/kg/day (mouse, strain CD-1 HaM/ICR, males, in feed, site: liver, lesion: hepatoma, dosed 77 weeks, study length 86 weeks). The TD50 by setting is: (mouse, strain CD-1 HaM/ICR, males, in feed, site: liver, lesion: several types, types named in the paper, dosed 77 weeks, study length 86 weeks) 921 mg/kg/day; (mouse, strain CD-1 HaM/ICR, males, in feed, site: lung, lesion: several types, types named in the paper, dosed 77 weeks, study length 86 weeks) 3210 mg/kg/day (inactive); (rat, strain Charles River CD (Sprague-Dawley), males, in feed, site: liver, lesion: hepatoma, dosed 77 weeks, study length 107 weeks) 248 mg/kg/day and 315 mg/kg/day; (rat, strain Charles River CD (Sprague-Dawley), males, in feed, site: liver, lesion: several types, types named in the paper, dosed 77 weeks, study length 107 weeks) 248 mg/kg/day.

With `Nc1ncc([N+](=O)[O-])s1`, the carcinogen call reads like this: (mouse, strain B6C3F1, females, in feed, site: any site (literature study), lesion: several types, types named in the paper, dosed 104 weeks, study length 104 weeks) “negative (inactive)”; (mouse, strain B6C3F1, males, in feed, site: any site (literature study), lesion: several types, types named in the paper, dosed 104 weeks, study length 104 weeks) “negative (inactive)”. Moreover, the TD50 by setting is: (mouse, strain B6C3F1, females, in feed, site: liver, lesion: hepatocellular adenoma + hepatocellular carcinoma + neoplastic nodule, dosed 104 weeks, study length 104 weeks) 109 mg/kg/day; (mouse, strain B6C3F1, females, in feed, site: lung, lesion: alveolar/bronchiolar adenoma + alveolar/bronchiolar carcinoma, dosed 104 weeks, study length 104 weeks) 63.5 mg/kg/day; (rat, strain Fischer 344, females, in feed, site: any site (literature study), lesion: several types, types named in the paper, dosed 110 weeks, study length 111 weeks) 326 mg/kg/day; (rat, strain Fischer 344, females, in feed, site: uterus, lesion: endometrial stromal polyp, dosed 110 weeks, study length 111 weeks) 57.2 mg/kg/day (inactive); (rat, strain Fischer 344, males, in feed, site: all sites + multiple organs, lesion: lymphocytic leukemia + malignant lymphoma + undifferentiated leukemia, dosed 110 weeks, study length 111 weeks) 445 mg/kg/day; (rat, strain Fischer 344, males, in feed, site: all sites, lesion: leukemia + lymphoma, dosed 110 weeks, study length 111 weeks) 27.6 mg/kg/day. Moreover, the TD50 is, setting by setting: (rat, strain Fischer 344, males, in feed, site: any site (literature study), lesion: several types, types named in the paper, dosed 110 weeks, study length 111 weeks) 32.3 mg/kg/day; (rat, strain Fischer 344, males, in feed, site: liver, lesion: hepatocellular adenoma + hepatocellular carcinoma + neoplastic nodule, dosed 110 weeks, study length 111 weeks) 318 mg/kg/day; (rat, strain Fischer 344, males, in feed, site: multiple organs, lesion: granulocytic leukemia, dosed 110 weeks, study length 111 weeks) 90.2 mg/kg/day; (rat, strain Sprague-Dawley, females, in feed, site: any site (literature study), lesion: several types, types named in the paper, dosed 46 weeks, study length 66 weeks) 32.5 mg/kg/day; (rat, strain Sprague-Dawley, females, in feed, site: kidney/pelvis, lesion: transitional-cell carcinoma, dosed 46 weeks, study length 66 weeks) 157 mg/kg/day; (rat, strain Sprague-Dawley, females, in feed, site: lung, lesion: alveolar-cell carcinoma, dosed 46 weeks, study length 66 weeks) 157 mg/kg/day. Further, the TD50 (rat, strain Sprague-Dawley, females, in feed, site: mammary gland, lesion: several types, types named in the paper, dosed 46 weeks, study length 66 weeks) was 44.6 mg/kg/day.

On to `Oc1cc2c(cc1O)[C@@H]1c3ccc(O)c(O)c3OC[C@]1(O)C2`, for which the TD50 runs as follows: (rat, strain Wistar, both sexes, in feed, site: abdomen, lesion: malignant lymphoma, dosed 78 weeks, study length 78 weeks) 2410 mg/kg/day; (rat, strain Wistar, both sexes, in feed, site: forehead, lesion: malignant lymphoma, dosed 78 weeks, study length 78 weeks) 2410 mg/kg/day; (rat, strain Wistar, both sexes, in feed, site: several sites, sites named in the paper, lesion: malignant lymphoma, dosed 78 weeks, study length 78 weeks) 1000 mg/kg/day.

As for `C[C@@H]1Cc2c(Cl)cc(C(=O)N[C@@H](Cc3ccccc3)C(=O)O)c(O)c2C(=O)O1`, the TD50 reads like this: (mouse, strain B6C3F1, females, in feed, site: liver, lesion: hepatocellular adenoma, dosed 104 weeks, study length 104 weeks) 109 mg/kg/day; (mouse, strain B6C3F1, females, in feed, site: liver, lesion: hepatocellular carcinoma, dosed 104 weeks, study length 104 weeks) 34.8 mg/kg/day; (mouse, strain B6C3F1, males, in feed, site: kidney, lesion: adenoma, dosed 104 weeks, study length 104 weeks) 4.64 mg/kg/day; (mouse, strain B6C3F1, males, in feed, site: kidney, lesion: carcinoma, dosed 104 weeks, study length 104 weeks) 10.3 mg/kg/day; (mouse, strain B6C3F1, males, in feed, site: kidney, lesion: several types, types named in the paper, dosed 104 weeks, study length 104 weeks) 3.53 mg/kg/day; (mouse, strain B6C3F1, males, in feed, site: liver, lesion: hepatocellular adenoma, dosed 104 weeks, study length 104 weeks) 48.1 mg/kg/day. Besides, the TD50 was 58.7 mg/kg/day (mouse, strain B6C3F1, males, in feed, site: liver, lesion: hepatocellular carcinoma, dosed 104 weeks, study length 104 weeks); 0.368 mg/kg/day (rat, strain DA (from Hannover), males, by gavage, site: kidney, lesion: adenocarcinoma, dosed 110 weeks, study length 110 weeks); 1.18 mg/kg/day (rat, strain DA (from Hannover), males, by gavage, site: urinary bladder, lesion: transitional-cell carcinoma, dosed 110 weeks, study length 110 weeks); 0.386 mg/kg/day (rat, strain Fischer 344, females, by gavage, site: kidney + mammary gland, lesion: tubule adenoma + tubule carcinoma + fibroadenoma, dosed 103 weeks, study length 104 weeks); 0.485 mg/kg/day (rat, strain Fischer 344, females, by gavage, site: kidney, lesion: tubule adenoma + tubule carcinoma, dosed 103 weeks, study length 104 weeks); 0.813 mg/kg/day (rat, strain Fischer 344, females, by gavage, site: kidney, lesion: tubule adenoma, dosed 103 weeks, study length 104 weeks). In addition, the TD50 reads like this: (rat, strain Fischer 344, females, by gavage, site: kidney, lesion: tubule carcinoma, dosed 103 weeks, study length 104 weeks) 1.31 mg/kg/day; (rat, strain Fischer 344, females, by gavage, site: mammary gland, lesion: fibroadenoma, dosed 103 weeks, study length 104 weeks) 0.55 mg/kg/day; (rat, strain Fischer 344, males, by gavage, site: any site (literature study), lesion: several types, types named in the paper, dosed 103 weeks, study length 104 weeks) 0.0863 mg/kg/day; (rat, strain Fischer 344, males, by gavage, site: kidney, lesion: tubule adenoma + tubule carcinoma + tubule epithelium adenoma + tubular-cell carcinoma, bilateral, dosed 103 weeks, study length 104 weeks) 0.0579 mg/kg/day; (rat, strain Fischer 344, males, by gavage, site: kidney, lesion: tubule adenoma + tubule epithelium adenoma, dosed 103 weeks, study length 104 weeks) 0.241 mg/kg/day; (rat, strain Fischer 344, males, by gavage, site: kidney, lesion: tubule carcinoma + tubular-cell carcinoma, bilateral, dosed 103 weeks, study length 104 weeks) 0.0756 mg/kg/day. Also, the TD50 was 2.5 mg/kg/day (rat, strain Fischer 344, males, by gavage, site: liver, lesion: hepatocellular adenoma + hepatocellular carcinoma + neoplastic nodule, dosed 103 weeks, study length 104 weeks); 2.56 mg/kg/day (rat, strain Lewis, females, by gavage, site: kidney, lesion: adenocarcinoma, dosed 110 weeks, study length 110 weeks); 1.25 mg/kg/day (rat, strain Lewis, males, by gavage, site: kidney, lesion: adenocarcinoma, dosed 110 weeks, study length 110 weeks). In addition, the carcinogen call was “negative (inactive)” (rat, strain DA (from Hannover), females, by gavage, site: kidney, lesion: one or several types, types not named, dosed 110 weeks, study length 110 weeks) and “negative (inactive)” (rat, strain Wistar, both sexes, by gavage, site: any site (literature study), lesion: one or several types, types not named, dosed 50 weeks, study length 110 weeks).

On to `COc1cc(NC(=O)C(N=Nc2ccc(-c3ccc(N=NC(C(C)=O)C(=O)Nc4cc(OC)c(Cl)cc4OC)c(Cl)c3)cc2Cl)C(C)=O)c(OC)cc1Cl` (stereo not given), for which the carcinogen call (mouse, strain NMRI, both sexes, in feed, site: any site (literature study), lesion: one or several types, types not named, dosed 104 weeks, study length 104 weeks) is “negative (inactive)”. The TD50 (rat, strain Sprague-Dawley, both sexes, in feed, site: any site (literature study), lesion: one or several types, types not named, dosed 104 weeks, study length 104 weeks) is 3560 mg/kg/day (inactive).

On to `O=C1NCCN1`, for which the TD50 runs as follows: (mouse, strain B6AKF1, females, oral dosing, site: any site (literature study), lesion: several types, types named in the paper, dosed 76 weeks, study length 76 weeks) 473 mg/kg/day (inactive); (mouse, strain B6AKF1, females, oral dosing, site: lung, lesion: adenoma, dosed 76 weeks, study length 76 weeks) 505 mg/kg/day (inactive); (mouse, strain B6AKF1, males, oral dosing, site: liver, lesion: hepatoma, dosed 76 weeks, study length 76 weeks) 500 mg/kg/day (inactive); (mouse, strain B6C3F1, males, oral dosing, site: any site (literature study), lesion: several types, types named in the paper, dosed 76 weeks, study length 76 weeks) 87.1 mg/kg/day (inactive); (mouse, strain B6C3F1, males, oral dosing, site: liver, lesion: hepatoma, dosed 76 weeks, study length 76 weeks) 242 mg/kg/day (inactive); (mouse, strain B6C3F1, males, oral dosing, site: lung, lesion: adenoma, dosed 76 weeks, study length 76 weeks) 242 mg/kg/day (inactive). In addition, the carcinogen call is “negative (inactive)” (mouse, strain B6AKF1, females, oral dosing, site: liver, lesion: hepatoma, dosed 76 weeks, study length 76 weeks); “negative (inactive)” (mouse, strain B6AKF1, males, oral dosing, site: any site (literature study), lesion: several types, types named in the paper, dosed 76 weeks, study length 76 weeks); “negative (inactive)” (mouse, strain B6AKF1, males, oral dosing, site: lung, lesion: adenoma, dosed 76 weeks, study length 76 weeks); “negative (inactive)” (mouse, strain B6C3F1, females, oral dosing, site: any site (literature study), lesion: one or several types, types not named, dosed 76 weeks, study length 76 weeks); “negative (inactive)” (mouse, strain B6C3F1, females, oral dosing, site: liver, lesion: hepatoma, dosed 76 weeks, study length 76 weeks); “negative (inactive)” (mouse, strain B6C3F1, females, oral dosing, site: lung, lesion: several types, types named in the paper, dosed 76 weeks, study length 76 weeks).
